Results from patent publication US7642369B2, “Epoxyketone-based immunoproteasome inhibitors” (University of Kentucky Research Foundation, priority 2006, dated 2010).
“Also recorded” adds a separate entry of the source. Like-named read-outs stand apart in the source and are kept apart here.

How the values were obtained:
20S immunoproteasome = experiment: Enzyme kinetics: inhibition of chymotrypsin-like activity of purified 20S immunoproteasome, fluorogenic substrate Suc-Leu-Leu-Val-Tyr-AMC; format: biochemical, bovine; settings: for Kobs/[I], 20S immunoproteasome: purified 20S immunoproteasome; for Relative selectivity: immunoproteasome/regular proteasome, normalized against epoxomicin
Procedure: (§1) Since LMP2 is a major catalytic subunit responsible for chymotrypsin-like activity, inactivation of the LMP2 subunit inhibits proteolytic activity of immunoproteasome. […] Enzyme kinetics experiments were also carried out with the purified 20S constitutive proteasome as control.
(§2) Enzyme kinetics were performed by measuring the chymotrypsin-like activity of 20S immunoproteasome and regular proteasome in the presence of compound 15 using a fluorogenic peptide substrate.
(§3) Enzyme Kinetic Studies: kassociation values were determined as follows. Inhibitors were mixed with a fluorogenic peptide substrate and assay buffer [20 mM Tris (pH 8.0), 0.5 mM EDTA, and 0.035% SDS] in a 96-well plate. The chymotrypsin-like activity was assayed using the fluorogenic peptide substrates Suc-Leu-Leu-Val-Tyr-AMC (Sigma-Aldrich). Hydrolysiswas initiated by the addition of bovine 20S proteasome or immunoproteasome (Biomol International), and the reaction was followed by fluorescence (360-nm excitation/460-nm detection) using a Microplate Fluorescence Reader (FL600; Bio-Tek Instruments, Inc., Winnoski, Vt.) employing the software KC4 v.2.5 (Bio-Tek Instruments, Inc., Winooski, Vt.). Reactions were allowed to proceed for 60-90 min, and fluorescence data were collected every 1 min. Fluorescence was quantified as arbitrary units and progression curves were plotted for each reaction as a function of time. kobserved/[I] values were obtained using PRISM program by nonlinear least squares fit of the data to the following equation: fluorescence=vst+[(v0−vs)/kobserved][1−exp(−kobserved t)], where v0 and vs are the initial and final velocities, respectively, and kobserved is the reaction rate constant. […] Reactions were performed using inhibitor concentrations that were <100-fold of those of the proteasome assayed.

20S regular proteasome = target: T1, 20S regular proteasome (Bos taurus, UniProt Q2TBX6+Q32KL2); experiment: Enzyme kinetics: inhibition of chymotrypsin-like activity of purified 20S constitutive (regular) proteasome, fluorogenic substrate Suc-Leu-Leu-Val-Tyr-AMC; format: biochemical, bovine; settings: for kinact/KI: read-out: Kobs/[I], 20S regular proteasome
T1 construct: purchased Biomol International
Procedure: as §1, §2, §3

[1] = tested on: proteasome subunits LMP7/X and LMP2; experiment: Competition screening assay in EL4 cells with biotin-dihydroeponemycin probe, streptavidin-HRP western blot; format: binding, Murine; settings: for Proteasome subunit binding and specificity, competition against biotin-dihydroeponemycin labelling: EL4 cells, 30 min pre-incubation, 1 hr probe, western blot
Procedure: (§4) Med. Chem. Lett. 9, 3335-3340 (1999) (herein incorporated by reference); and “Towards Immunoproteasome-Specific Inhibitors: An Improved Synthesis of Dihydroeponemycin.” Specifically, various concentrations of these compounds were pre-incubated in EL4 cells at 37° C. for 30 min. […] After cells were lysed, whole cell lysates were analyzed using 12% SDS-PAGE and transferred to PVDF membranes. Biotinylated proteins were then visualized using streptavidin-horseradish peroxidase (HRP) and enhanced chemiluminescence (ECL).
(§5) The western blots were performed using EL4 cells pre-incubated with proteasome inhibitors for 30 min before treating with biotinylated compounds. After 1 hr incubation, cells were lysed, and analyzed by western blot using streptavidin-HRP and ECL.
Similar competition assays were performed to screen for immunoproteasome inhibitors in a EL4 cell model system. EL4 cell system was chosen since these cells highly express catalytic subunits of both the constitutive and immunoproteasomes.
(§6) Cell Culture and Screening Assay: Murine lymphoma EL4 (ATCC) cells were grown in RPMI medium (Gibco), 10% fetal bovine serum and 1% penicillin and streptomycin at […] in a 5% CO2 incubator. […] The cells were then incubated for an additional 1 hour. Cell lysates were analyzed by 12% SDS-PAGE and transferred to PVDF membrane. Proteins that were covalently modified by biotinylated compounds were visualized by enhanced chemiluminescence using streptavidin conjugated horseradish peroxidase (Sigma-Aldrich) or anti-LMP2 (Affinity BioReagents) and Biomax X-ray film (Kodak).

H460 (Lung) = experiment: Cell proliferation assay by counting cell numbers after 24 h incubation; format: cell-based; settings: cell number after 24 h incubation
Procedure: (§7) To compare the efficacy of the present LMP2 inhibitor compounds and, in particular, LMP2 inhibitor 15, as compared to prior known inhibitors, comparative tests were conducted using compound 21 in expressing tumor cells. LMP2 inhibitor compound 21 blocked proliferation of lung cancer H460, prostate cancer cells PC3 and multiple myeloma cells RPMI8226, as summarized in Table 2, below.

PC3 (Prostate) = experiment: as above; format: cell-based; settings: cell number after 24 h incubation
Procedure: as §7

RPMI8226 (MM) = experiment: as above; format: cell-based; settings: cell number after 24 h incubation
Procedure: as §7

WI-38 (Fibroblast) = experiment: as above; format: cell-based; settings: cell number after 24 h incubation
[2] = tested on: proteasome subunits Z, MECL1, LMP7 and X; experiment: Competition screening assay in EL4 cells with biotin-epoxomicin probe, streptavidin-HRP western blot; format: binding, Murine; settings: 30 min pre-incubation, 1 hr probe
Procedure: as §4, §5
Preincubation of EL4 cells with 1 μM of compound 15 (one equivalent of assay probe) was sufficient to selectively modify the catalytic threonine residue of LMP2 subunit, thereby preventing further modification of LMP2 subunit by biotin-dihydroeponemycin, resulting in selective attenuation of LMP2 protein band on western blot.
Cell Culture and Screening Assay: Murine lymphoma EL4 (ATCC) cells were grown in RPMI medium (Gibco), 10% fetal bovine serum and 1% penicillin and streptomycin at […] in a 5% CO2 incubator. […] Cell lysates were analyzed by 12% SDS-PAGE and transferred to PVDF membrane. […]

LMP2 subunit = target: T2, LMP2 subunit (Mus musculus, UniProt O35955+P28076); experiment: LMP2 mobility shift in EL4 cells, western blot with anti-LMP2 antibody; format: binding, Murine; settings: 1 hr at 37° C.; for Covalent modification of LMP2, mobility shift of adduct on SDS PAGE: anti-LMP2 western blot
T2 construct: sufficient to modify LMP2 subunits present in cells; endogenous in cells; host or cells: EL4 murine lymphoma cells (ATCC)
Procedure: The mobility shift of LMP2:15 adduct was investigated to further verify that compound 15 covalently modifies the LMP2 subunit (FIG. 5). After EL4 cells were incubated with compound 15 or assay probes (Biotin-EPX and Biotin-EPN) for 1 hr at 37° C., cells were lysed and boiled for 15 min. Whole cell proteins were then analyzed by western blot using anti-LMP2 antibody.
Since molecular weights of the LMP2 subunit are increased by 828.08 (for biotin-epoxomicin) and 1078.45 (for biotin-dihydroeponemycin), assay probe-LMP2 adducts are expected to show a slower mobility as compared to free LMP2 (lanes 1-3, FIG. 5). […] It can be explained by a smaller molecular weight of compound 15 (484.76) compared to assay probes (828.08 and 1078.45). […] LMP2 inhibitor efficiently blocks the proteolytic activity of immunoproteasome with high specificity. Screening assay and mobility shift studies have shown that compound 15 selectively inactivates the LMP2 subunit via covalent modification. Since LMP2 is a major catalytic subunit responsible for chymotrypsin-like activity, inactivation of the LMP2 subunit inhibits proteolytic activity of immunoproteasome. Confirmation of this is provided by enzyme kinetics studies performed using purified 20S immunoproteasome. Enzyme kinetics experiments were also carried out with the purified 20S constitutive proteasome as control.
as §6

## CC(C)CCCCC(=O)N[C@@H](CO)C(=O)N[C@@H](CC(C)C)C(=O)[C@@]1(CO)CO1 [Dihydroeponemycin, dihydroeponemycin, reference compound]
20S immunoproteasome; chymotrypsin-like activity
  Kobs/[I], 20S immunoproteasome: 251 ± 121 M^−1S^−1
20S immunoproteasome
  Relative selectivity: 5
20S regular proteasome; chymotrypsin-like activity, purified 20S constitutive proteasome
  kinact/KI: 721 ± 84 M⁻¹ s⁻¹
[1]
  Proteasome subunit binding and specificity, competition against biotin-dihydroeponemycin labelling: LMP7/X and LMP2 protein bands are competed away; also recorded: do not have specificity towards subunits of either the constitutive or immunoproteasomes

## CC[C@H](C)[C@H](NC(=O)[C@H]([C@@H](C)CC)N(C)C(C)=O)C(=O)N[C@H](C(=O)N[C@@H](CC(C)C)C(=O)[C@@]1(C)CO1)[C@@H](C)O [Epoxomicin, epoxomicin]
20S immunoproteasome; chymotrypsin-like activity
  Kobs/[I], 20S immunoproteasome: 3,044 ± 1,423 M^−1S^−1
H460 (Lung)
  IC50: 100 nM
PC3 (Prostate)
  IC50: 10 nM
RPMI8226 (MM)
  IC50: 100 nM
WI-38 (Fibroblast)
  IC50: 28 nM
[2]
  Proteasome subunit binding, competition against biotin-epoxomicin labelling: proteasome subunit (Z, MECL1, LMP7 and X) bands are efficiently competed away
[2]; listed as epoximicin
  Proteasome subunit binding, competition against biotin-epoxomicin labelling: do not have specificity towards subunits of either the constitutive or immunoproteasomes

## CCCCCCC(=O)N[C@@H](C)C(=O)N[C@@H](CC(C)C)C(=O)[C@@]1(CO[Si](C)(C)C(C)(C)C)CO1 [Compound 15]
20S immunoproteasome; chymotrypsin-like activity
  Kobs/[I], 20S immunoproteasome: 83 ± 27 M^−1S^−1
20S immunoproteasome; chymotrypsin-like activity, versus dihydroeponemycin
  higher selectivity toward the 20S immunoproteasome in comparison to dihydroeponemycin: 5 fold
20S immunoproteasome; chymotrypsin-like activity, versus epoxomicin
  higher selectivity toward the 20S immunoproteasome in comparison to epoxomicin: 24 fold
20S immunoproteasome; fluorogenic peptide substrate
  Inhibition of chymotrypsin-like activity of 20S immunoproteasome (in words): displayed a better inhibitory activity against the immunoproteasome; also recorded: time- and concentration-dependent inhibition
20S immunoproteasome
  Relative selectivity: 24
LMP2 subunit
  Covalent modification of LMP2, mobility shift of adduct on SDS PAGE: covalently modify the immunoproteasome subunit LMP2
LMP2 subunit; listed as compound 15
  Covalent modification of LMP2, mobility shift of adduct on SDS PAGE: slower mobility for the LMP2-15 adduct on SDS PAGE was clearly shown as compared to free LMP2
LMP2 subunit; mobility shift
  Concentration sufficient to modify LMP2 subunits present in cells: 1 µM
20S regular proteasome; fluorogenic peptide substrate
  Inhibition of chymotrypsin-like activity of 20S regular proteasome (in words): poorly inhibited the chymotrypsin-like activity of 20S regular proteasome
20S regular proteasome
  kinact/KI: 49 ± 18 M⁻¹ s⁻¹
[1]; EL4 cells preincubated, one equivalent of assay probe (biotin-dihydroeponemycin)
  Concentration sufficient to selectively modify the catalytic threonine residue of LMP2 subunit: 1 µM
[1]
  Proteasome subunit binding and specificity, competition against biotin-dihydroeponemycin labelling: selectively targeting the immunoproteasome subunit LMP2; also recorded: even higher specificity towards the LMP2 subunit was obtained

## CCCCCCC(=O)N[C@@H](C)C(=O)N[C@@H](CC(C)C)C(=O)[C@@]1(CO)CO1 [Compound 9]
[1]
  Proteasome subunit binding and specificity, competition against biotin-dihydroeponemycin labelling: LMP7/X and LMP2 protein bands are competed away

## CCCCCCC(=O)N[C@@H](CO)C(=O)N[C@@H](CC(C)C)C(=O)[C@@]1(COCOC)CO1 [Compound 11]
[1]
  Proteasome subunit binding and specificity, competition against biotin-dihydroeponemycin labelling: do not selectively target proteasome subunits; also recorded: dramatic loss in the potency and specificity compared to dihydroeponemycin

## CCCCCCC(=O)N[C@@H](CO)C(=O)N[C@@H](CC(C)C)C(=O)[C@@]1(COCOCCOC)CO1 [Compound 12]
[1]
  Proteasome subunit binding and specificity, competition against biotin-dihydroeponemycin labelling: selectively targeting the immunoproteasome subunit LMP2; also recorded: high specificity towards LMP2 was achieved
